This note sets out measurements from ChEMBL document CHEMBL5316350, “Novel Pyrido[2',1':2,3]imidazo[4,5-c]quinoline Derivative Selectively Poisons Leishmania donovani Bisubunit Topoisomerase 1 to Inhibit the Antimony-Resistant Leishmania Infection in Vivo” (J Med Chem, 2023).

Data set [1] addresses T1, DNA topoisomerase I (Leishmania donovani (strain BPK282A1), UniProt E9BRC0).
T1 sequence (E9BRC0 whole entry): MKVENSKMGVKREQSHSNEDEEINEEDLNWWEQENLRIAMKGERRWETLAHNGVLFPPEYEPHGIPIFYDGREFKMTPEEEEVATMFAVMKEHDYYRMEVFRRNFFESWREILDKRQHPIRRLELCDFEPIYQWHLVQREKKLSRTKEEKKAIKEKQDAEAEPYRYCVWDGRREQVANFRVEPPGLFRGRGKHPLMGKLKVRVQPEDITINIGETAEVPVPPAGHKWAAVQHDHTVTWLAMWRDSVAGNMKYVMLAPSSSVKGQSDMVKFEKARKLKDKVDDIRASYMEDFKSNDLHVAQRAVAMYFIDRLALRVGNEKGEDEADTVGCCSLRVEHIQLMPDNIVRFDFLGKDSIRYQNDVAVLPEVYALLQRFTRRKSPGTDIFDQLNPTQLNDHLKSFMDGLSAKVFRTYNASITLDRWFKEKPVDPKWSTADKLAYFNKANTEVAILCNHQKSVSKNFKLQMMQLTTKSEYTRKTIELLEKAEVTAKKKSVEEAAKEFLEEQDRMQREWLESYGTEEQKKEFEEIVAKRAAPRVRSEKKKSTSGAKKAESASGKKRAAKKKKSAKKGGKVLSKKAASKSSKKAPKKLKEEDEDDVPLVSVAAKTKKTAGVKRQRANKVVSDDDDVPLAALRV
The data set can be described thus: Inhibition of Leishmania donovani Top1 assessed as relaxation of supercoiled pBluescript SK(+) DNA measured by agarose gel electrophoresis analysis.

Data set [2] deals with T1, DNA topoisomerase I. The data set can be described thus: Inhibition of recombinant Top1 in Leishmania donovani Ag83 whole cell extract assessed as relaxation of supercoiled pBluescript SK(+) DNA measured by agarose gel electrophoresis analysis.
Data set [3] concerns the target T2, DNA topoisomerase I (Leishmania donovani (strain BPK282A1)) (UniProt E9BRC0).
T2 sequence (whole entry): T1 sequence (E9BRC0 whole entry)
Briefly: Inhibition of Leishmania donovani topoisomerase I assessed as DNA intercalation using pBluscript (SK+) DNA as substrate at 50 to 200 uM incubated for 15 mins ethidium bromide staining based UV analysis. The conditions noted are these: dose 50-200 µM.

Data set [4] deals with T2, DNA topoisomerase I (Leishmania donovani (strain BPK282A1)). Briefly: Binding affinity to Leishmania donovani topoisomerase I assessed as DNA intercalation by measuring dislodging of bound fluorophore at 50 uM by EtBr displacement assay.
The target is the same in data set [5]. Briefly: Binding affinity to topoisomerase I in Leishmania donovani Ag83 whole cell lysate assessed as stabilization of cleavage complex at 50 to 100 uM measured after 30 mins. The class given is subcellular. The conditions noted are these: dose 50-100 µM.
The test system of data set [6] is Leishmania donovani. The data set can be described thus: Antileishmanial activity against antimony resistant Leishmania donovani BHU575 amastigotes infected in BALB/c mouse macrophage assessed as cell viability measured after 48 hrs infection by propidium iodide staining analysis relative to control. The class given is functional, organism-based. To be noted: BHU575, 48 h.

In data set [7] the target is T2, DNA topoisomerase I (Leishmania donovani (strain BPK282A1)). The data set can be described thus: Binding affinity to antimony resistant Leishmania donovani BHU575 promastigotes recombinant topoisomerase I assessed as stabilization of cleavage complex at 50 to 100 uM measured after 30 mins. The conditions noted are these: dose 50-100 µM.
The test system of data set [8] is Leishmania donovani. Briefly: Antileishmanial activity against antimony resistant Leishmania donovani BHU575 promastigotes assessed as cell viability by MTT assay. The class given is functional, organism-based. (In general: Formazan colour is commonly taken as a measure of viable cells.)
For a further data set, the system named is MCF7. Briefly: Induction of cell cycle arrest in human MCF7 cells assessed as accumulation at G1 sub population measured at 5 uM upto 24 hrs by PI staining based flow cytometry. The class given is functional.
The target of data set [9] is T2, DNA topoisomerase I (Leishmania donovani (strain BPK282A1)). The data set can be described thus: Binding affinity to Leishmania donovani recombinant topoisomerase I assessed as stabilization of cleavage complex at 25 to 50 uM measured after 30 mins. To be noted: dose 25-50 µM.
Data set [10] deals with Leishmania donovani. The data set can be described thus: Antileishmanial activity in Leishmania donovani Ag83 promastigotes assessed as reversible of Top1cc-induced DNA breakdown by disappearance of measuring TUNEL positive cells treated for 6 to 12 hrs followed by compound removal measured after 6 to 12 hrs by confocal microscopic analysis. It is filed as functional, organism-based. The conditions noted are these: time 6-12 hrs.

Data set [11] can be described thus: Cytotoxicity against BALB/c mouse macrophage assessed as cell viability measured after 48 hrs infection by propidium iodide staining analysis relative to control. The class given is toxicity, cell-based. To be noted: mouse macrophages.
For data set [12], the system named is Leishmania donovani. Briefly: Antileishmanial activity in Leishmania donovani Ag83 promastigotes assessed as Top1cc-induced DNA breakdown by measuring TUNEL positive cells by confocal microscopic analysis. It is filed as functional, organism-based. To be noted: time 6-12 hrs, TDE = time-dependent effect.
Data set [13] concerns Leishmania donovani. Briefly: Stabilization of Leishmania donovani promastigotes Top1-DNA complex assessed as formation of SDS-KCl precipitable complex incubated for 110 mins by anti-BrdU staining based spectrophotometric analysis. A general note: Dividing cells build labelled thymidine or BrdU into new DNA.
Data set [14] deals with Leishmania donovani. The data set can be described thus: Antileishmanial activity against Leishmania donovani Ag83 amastigotes infected in BALB/c mouse macrophage assessed as cell viability measured after 48 hrs infection by propidium iodide staining analysis relative to control. To be noted: Ag83, 48 h. It is filed as functional, organism-based.
Data set [15] relates to Leishmania donovani. Briefly: Antileishmanial activity against Leishmania donovani Ag83 promastigotes assessed as cell viability by MTT assay. The class given is functional, organism-based.

pEC50, pIC50: −log10 of the molar value. Active and inactive are the calls of the source. The rule behind the calls is not given here.

What is called pIC50 is −log10 of the IC50, conventionally taken in molar units. Regarding `c1ccc(-c2nc3ccccc3c3nc4ccccn4c23)cc1`, the pIC50 at DNA topoisomerase I [1] was < 5.00. On to `Cc1cccn2c1nc1c3ccccc3nc(-c3cccs3)c12`, for which the pIC50 on DNA topoisomerase I [2] is 4.83; at DNA topoisomerase I [1], 5.14.

Consider `Clc1ccc(-c2nc3ccccc3c3nc4ccccn4c23)cc1`, for which, at DNA topoisomerase I [1], the negative-log IC50 (pIC50) is 5.07. Regarding `Brc1ccc2nc3c4ccccc4ncc3n2c1`, at DNA topoisomerase I [1], the pIC50 was < 5.00.

Consider `Cc1ccn2c(c1)nc1c3ccccc3ncc12`, for which the negative-log IC50 (pIC50) at DNA topoisomerase I [1] is < 5.00. Turning to `Cc1ccc(-c2nc3ccccc3c3nc4c(C)cccn4c23)cc1`, the pIC50 on DNA topoisomerase I [2] was 4.82; at DNA topoisomerase I [1], 5.14. For `Cc1cccn2c1nc1c3ccccc3nc(-c3ccccc3)c12`, in that order: 4.89 and 5.17. Regarding `c1ccc2c(c1)ncc1c2nc2ccccn21`, the negative-log IC50 (pIC50) on DNA topoisomerase I [1] was < 5.00. For the compound `Cc1ccc(-c2nc3ccccc3c3nc4ccccn4c23)cc1`, at DNA topoisomerase I [1], the pIC50 is < 5.00.

For `O=[N+]([O-])c1ccc(-c2nc3ccccc3c3nc4ccccn4c23)cc1`, at DNA topoisomerase I [1], the negative logarithm of the IC50 (pIC50) was < 5.00. The same measure, in the same setting: the result for `O=[N+]([O-])c1ccccc1-c1nc2ccccc2c2nc3ccccn3c12` reads < 5.00.

Regarding `O=[N+]([O-])c1cccc(-c2nc3ccccc3c3nc4ccccn4c23)c1`, the negative logarithm of the IC50 (pIC50) at DNA topoisomerase I [1] is < 5.00.

Consider `Cc1cccn2c1nc1c3ccccc3nc(-c3ccc(Cl)cc3)c12`, for which the negative logarithm of the IC50 (pIC50) was 4.90 at DNA topoisomerase I [2] and 5.26 at DNA topoisomerase I [1]. Take `COc1ccc(-c2nc3ccccc3c3nc4ccccn4c23)cc1OC`: the pIC50 is 4.92 on DNA topoisomerase I [2] and 5.28 on DNA topoisomerase I [1]. Turning to `Cc1ccc(-c2nc3ccccc3c3nc4cc(C)ccn4c23)cc1`, the negative logarithm of the IC50 (pIC50) at DNA topoisomerase I [1] was < 5.00.

Take `Cc1ccc2nc3c4ccccc4ncc3n2c1`: the negative logarithm of the IC50 (pIC50) at DNA topoisomerase I [1] was < 5.00. Same read-out and setting: the value for `Cc1cccn2c1nc1c3ccccc3nc(-c3ccccn3)c12` was < 5.00.

On to `COc1ccc(-c2nc3ccccc3c3nc4cc(C)ccn4c23)cc1`, for which the negative-log IC50 (pIC50) at DNA topoisomerase I [1] is < 5.00. Turning to `COc1cc([C@@H]2c3cc4c(cc3[C@@H](O[C@@H]3O[C@@H]5CO[C@@H](C)O[C@H]5[C@H](O)[C@H]3O)[C@H]3COC(=O)[C@H]23)OCO4)cc(OC)c1O`, the inhibition entry in data set [3] is “inactive”. As to `COc1cc(NS(C)(=O)=O)ccc1Nc1c2ccccc2nc2ccccc12`, the outcome in [4] was Active. In [3], the inhibition result was “Active”. The term pEC50 denotes the negative decadic logarithm of the EC50, by convention in mol/L. As usually defined, the EC50 is the concentration giving half of the maximal effect. Consider `CC[C@@]1(O)C(=O)OCc2c1cc1n(c2=O)Cc2cc3ccccc3nc2-1` [CAMPTOTHECIN], for which the outcome (in data set [5]; in data set [7]; in the data set on MCF7; in data set [9]; in the data set with Leishmania donovani [13]) was Active. The negative-log EC50 (pEC50) in the data set on Leishmania donovani [6] is 4.89; in the data set with Leishmania donovani [8], 5.18; in the data set with Leishmania donovani [14], 5.11; with Leishmania donovani [15], 5.42. For the same compound, the outcome in the data set on Leishmania donovani [10] was inactive. Moreover, the EC50 at 48 h in [11] stood at 18.3 µM. For the same compound, the Activity entry in the data set with Leishmania donovani [12] is “Tde”. Consider `Cc1ccn2c(c1)nc1c3ccccc3nc(-c3ccccc3)c12`, for which, on DNA topoisomerase I [1], the pIC50 was < 5.00.

Turning to `Clc1ccc2nc3c4ccccc4ncc3n2c1`, the negative logarithm of the IC50 (pIC50) on DNA topoisomerase I [1] was < 5.00.
